# ChEMBL document CHEMBL4431301, “The Medicinal Chemistry of Dengue Virus” (J Med Chem, 2016)
# Key:
# [1] = system: dengue virus type 2; assay: Antiviral activity against Dengue virus 2 NGC infected in african green monkey Vero cells assessed as reduction in viral titer preincubated for 1 hr followed by viral infection measured after 5 days by immunoplaque assay; format: functional, organism-based
# [2] = system: dengue virus type 2; assay: Antiviral activity against Dengue virus 2 S221 infected in ADE AG129 mouse model assessed as protection against viral infection at 20 to 100 mg/kg, po administered thrice daily for 7 days starting 1 hr prior to viral challenge measured for 10 days; format: functional
# [3] = system: dengue virus type 2; assay: Antiviral activity against Dengue virus 2 NGC infected in african green monkey Vero cells assessed as reduction in viral titer preincubated for 1 hr followed by viral infection measured after 5 days by plaque assay; format: functional, organism-based
# [4] = Cytotoxicity against african green monkey Vero cells; format: cell-based; conditions: chlorocebus sabaeus
# [5] = Oral bioavailability in Balb/c mouse at 200 mg/kg after 5 mins to 48 hrs by LC-MS/MS analysis; format: ADME, organism-based; conditions: in vivo
# [6] = system: dengue virus type 3; assay: Antiviral activity against Dengue virus 3 infected in human Huh7 cells assessed as reduction in viral replication after 48 hrs by plaque assay; format: functional, organism-based; conditions: Huh-7, 48 h
# [7] = system: dengue virus type 2; assay: Antiviral activity against Dengue virus 2 infected in human Huh7 cells assessed as reduction in viral replication after 48 hrs by plaque assay; format: functional, organism-based; conditions: Huh-7, 48 h
# [8] = system: dengue virus type 1; assay: Antiviral activity against Dengue virus 1 infected in human Huh7 cells assessed as reduction in viral replication after 48 hrs by plaque assay; format: functional, organism-based; conditions: Huh-7, 48 h
# [9] = system: dengue virus type 4; assay: Antiviral activity against Dengue virus 4 infected in human Huh7 cells assessed as reduction in viral replication after 48 hrs by plaque assay; format: functional, organism-based; conditions: Huh-7, 48 h
# [10] = system: dengue virus type 1; assay: Antiviral activity against Dengue virus 1 infected in human PBMC assessed as reduction in viral titer after 48 hrs preincubated with cells prior to ADE-mediated viral infection by plaque assay; format: functional, organism-based
# [11] = Inhibition of biotinylated Imp-alpha/beta1 (unknown origin) binding to Dengue virus NS5 by alpha screen assay; design: species or system Homo sapiens
# [12] = system: dengue virus type 2; assay: Antiviral activity against Dengue virus 2 Taiwanese PL046 infected in BHK21 cells after 48 hrs by plaque assay; format: functional, organism-based; conditions: Taiwanese PL046, BHK-21, 48 h
# [13] = system: dengue virus type 2; assay: Antiviral activity against Dengue virus 2 infected in BHK-pD2hRucPac cells assessed as reduction in virus replication after 72 hrs by renilla luciferase reporter gene assay; format: functional, organism-based
# [14] = Inhibition of Dengue virus 2 16681 NS5 guanylation expressed in Escherichia coliBL21(DE3) cells after 4 hrs by coomassie blue staining based SDS-PAGE method; design: species or system dengue virus type 2
# [15] = Inhibition of yeast alpha-glucosidase by double reciprocal plot method; design: species or system Saccharomyces cerevisiae
# [16] = Inhibition of GST-fused Imp-alpha/beta1 (unknown origin) binding to Dengue virus NS5 after 2 hrs by alpha screen assay; design: species or system Homo sapiens
# [17] = system: dengue virus type 2; assay: Antiviral activity against Dengue virus 2 NGC infected in african green monkey Vero cells assessed as reduction in viral titer preincubated for 2 hrs measured after 4 days by qRT-PCR; format: functional, organism-based
# [18] = system: dengue virus type 2; assay: Antiviral activity against Dengue virus 2 by CFI assay; format: functional, organism-based
# [19] = system: West Nile virus; assay: Antiviral activity against West Nile virus NY99 infected in african green monkey Vero cells assessed as reduction in viral titer preincubated for 2 hrs measured after 4 days by qRT-PCR; format: functional, organism-based
# [20] = system: dengue virus type 1; assay: Antiviral activity against Dengue virus 1 by CFI assay; format: functional, organism-based
# [21] = system: dengue virus type 4; assay: Antiviral activity against Dengue virus 4 by CFI assay; format: functional, organism-based
# [22] = system: dengue virus type 3; assay: Antiviral activity against Dengue virus 3 by CFI assay; format: functional, organism-based
# [23] = Drug uptake in C57BL/6 mouse spleen infected with Ebola virus at 3 mg/kg, iv administered 2 hrs prior to viral infection measured on day 2 and 5 post viral infection by mass spectrometry; format: ADME, organism-based; conditions: read-out: Drug uptake
# [24] = Drug uptake in C57BL/6 mouse kidney infected with Ebola virus at 3 mg/kg, iv administered 2 hrs prior to viral infection measured on day 2 and 5 post viral infection by mass spectrometry; format: ADME, organism-based; conditions: read-out: Drug uptake
# [25] = system: dengue virus type 1; assay: Antiviral activity against Dengue virus 1 infected in african green monkey Vero E6 cells assessed as inhibition of viral yield after 72 hrs by flow cytometry; format: functional, organism-based; conditions: Vero C1008, 72 h
# [26] = system: dengue virus type 3; assay: Antiviral activity against Dengue virus 3 infected in african green monkey Vero E6 cells assessed as inhibition of viral yield after 72 hrs by flow cytometry; format: functional, organism-based; conditions: Vero C1008, 72 h
# [27] = system: dengue virus type 4; assay: Antiviral activity against Dengue virus 4 infected in african green monkey Vero E6 cells assessed as inhibition of viral yield after 72 hrs by flow cytometry; format: functional, organism-based; conditions: Vero C1008, 72 h
# [28] = system: dengue virus type 2; assay: Antiviral activity against Dengue virus 2 infected in african green monkey Vero E6 cells assessed as inhibition of viral yield after 72 hrs by flow cytometry; format: functional, organism-based; conditions: Vero C1008, 72 h
compound,measurement,setting,value
OC[C@@H]1[C@@H](O)[C@H](O)[C@@H](O)CN1CCCCCCCCC1CCCO1 (stereo partly drawn),EC50,[1],21700 nM
same,Activity,[2],100%
COCCCCCCCCCN1C[C@H](O)[C@@H](O)[C@H](O)[C@H]1CO,EC50,[3],17000 nM
same,CC50,[4],> 500000 nM
same,bioavailability,[5],84%
CC(=O)O[C@H]1C[C@H](O[C@H]2[C@@H](O)C[C@H](O[C@H]3[C@@H](O)C[C@H](O[C@H]4CC[C@@]5(C)[C@H](CC[C@@H]6[C@@H]5C[C@@H](O)[C@]5(C)[C@@H](C7=CC(=O)OC7)CC[C@]65O)C4)O[C@@H]3C)O[C@@H]2C)O[C@H](C)[C@H]1O[C@@H]1O[C@H](CO)[C@@H](O)[C@H](O)[C@H]1O [LANATOSIDE C],IC50,[6],500 to 1000 nM
same,IC50,[7],500 to 1000 nM
same,IC50,[8],500 to 1000 nM
same,IC50,[9],500 to 1000 nM
CC1=C(/C=C/C(C)=C/C=C/C(C)=C/C(=O)Nc2ccc(O)cc2)C(C)(C)CCC1 [FENRETINIDE],EC50,[10],800 to 2600 nM
same,IC50,[11],1000 to 1500 nM
CCCCCCCCCCN1[C@H](CO)[C@@H](O)[C@H](O)[C@H]1CNC(=O)C1Cc2ccccc21 (stereo partly drawn),EC50,[12],4700 nM
CC(C)(C)c1ccc(/C=C2\SC(=S)N(CCC(=O)O)C2=O)cc1,EC50,[13],30800 nM
same,IC50,[14],7300 nM
O=C(NC[C@H]1N[C@H](CO)[C@@H](O)[C@@H]1O)C1Cc2ccccc21 (stereo partly drawn),Ki,[15],53 nM
IVERMECTIN,IC50,[16],17000 nM
same,EC50,[17],700 nM
same,EC50,[18],1200 to 1600 nM
same,EC50,[19],4000 nM
same,EC50,[20],1200 to 1600 nM
same,EC50,[21],1200 to 1600 nM
same,EC50,[22],1200 to 1600 nM
Cc1cc(NCCCN(C)C)c2ccc3c(ccc4c(NCCCN(C)C)cc(C)nc43)c2n1,concentration at 2 h,[23],19500 ng/g
same,concentration at 2 h,[24],43100 ng/g
same,EC50,[25],400 to 900 nM
same,EC50,[26],400 to 900 nM
same,EC50,[27],400 to 900 nM
same,EC50,[28],400 to 900 nM
